According to patent US9029337B2, “Modulation of factor 7 expression” (Isis Pharmaceuticals, Inc., priority 2007, dated 2015):
Strand notation (5' to 3'): a small letter for the sugar, then the base; units joined by * are phosphorothioate-linked, units joined directly phosphodiester-linked; [ ] holds rarer units or linkages, { } end groups; capitals alone tell only the bases. e = 2'-O-(2-methoxyethyl) (MOE); [5mC] = 5-methylcytosine; d = 2'-deoxy (DNA)

Test system: human Factor 7 mRNA
Test: Antisense inhibition of human Factor 7 with short (14-mer) oligonucleotides in HepB3 cells, electroporation 1,000 nM
Format: cell-based
Details: electroporation, 1,000 nM antisense oligonucleotide, approximately 24 hours, Factor 7 mRNA relative to untreated control cells
Procedure, shortened: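 14-mer 2-10-2 MOE gapmers (full phosphorothioate, 5-methyl-C) electroporated at 1,000 nM into HepB3 cells at 20,000 cells/well. After ~24 h, Factor 7 mRNA by real-time RT-PCR, normalized to RiboGreen total RNA. Reported as % inhibition relative to untreated cells.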

Substance	% Inhibition [%]
435765 (antisense e[5mC]*eA*dA*dA*dG*dT*dT*d[5mC]*dT*d[5mC]*dT*dG*e[5mC]*e[5mC]) [compound 435765]	1
435772 (antisense eG*e[5mC]*dA*dG*dT*d[5mC]*d[5mC]*d[5mC]*dT*dG*d[5mC]*dT*e[5mC]*eA) [compound 435772]	42
435744 (antisense e[5mC]*eT*dA*d[5mC]*dA*dG*d[5mC]*d[5mC]*dT*d[5mC]*dA*dA*eA*e[5mC]) [compound 435744]	19
435771 (antisense eG*eT*d[5mC]*dA*dT*dA*dA*dG*dG*d[5mC]*d[5mC]*dA*eT*eG) [compound 435771]	13
435686 (antisense e[5mC]*eA*dG*dT*dG*dA*dG*dG*dA*d[5mC]*d[5mC]*dA*e[5mC]*eG) [compound 435686]	31
435641 (antisense eG*eG*dT*d[5mC]*d[5mC]*d[5mC]*d[5mC]*dA*dT*d[5mC]*dA*d[5mC]*eT*eG) [compound 435641]	51
435844 (antisense eT*eG*dG*d[5mC]*d[5mC]*dA*dG*dT*dG*dG*d[5mC]*d[5mC]*eT*e[5mC]) [compound 435844]	30
435847 (antisense eT*eG*dG*dT*dG*dT*dG*d[5mC]*dA*d[5mC]*dA*d[5mC]*eA*eT) [compound 435847]	36
435801 (antisense e[5mC]*eG*dG*dT*dT*dG*dG*d[5mC]*d[5mC]*dA*dG*dG*e[5mC]*e[5mC]) [compound 435801]	38
435648 (antisense eG*eA*dA*dG*d[5mC]*dA*dG*dA*dT*dA*dT*dA*eG*eG) [compound 435648]	0
435689 (antisense eT*eT*d[5mC]*dG*dG*dG*d[5mC]*dA*dG*dG*d[5mC]*dA*eG*eA) [compound 435689]	23
435792 (antisense eT*eG*d[5mC]*dT*dG*dA*dA*dG*dA*dA*dA*d[5mC]*eT*eG) [compound 435792]	9
435731 (antisense eG*eT*dG*dA*dG*dA*dG*d[5mC]*dT*dA*dA*dA*e[5mC]*eA) [compound 435731]	11
435841 (antisense e[5mC]*eT*d[5mC]*dG*dG*dA*d[5mC]*dA*dA*dA*dA*dG*eA*eG) [compound 435841]	1
435657 (antisense eG*e[5mC]*dA*dG*dT*dA*d[5mC]*dT*dG*d[5mC]*dT*d[5mC]*eA*e[5mC]) [compound 435657]	69
435810 (antisense e[5mC]*eT*dG*dA*dG*dG*dG*dA*dA*dT*dG*dT*eT*eG) [compound 435810]	1
435649 (antisense eA*eG*dG*d[5mC]*dA*dG*dA*dA*dG*d[5mC]*dA*dG*eA*eT) [compound 435649]	21
435760 (antisense eT*e[5mC]*dT*dT*dG*dG*dG*dT*dG*dT*dG*dG*eA*eT) [compound 435760]	17
435679 (antisense e[5mC]*eG*d[5mC]*dT*dG*dA*dG*dG*dT*d[5mC]*dG*dT*eG*e[5mC]) [compound 435679]	62
435495 (antisense eG*eA*dG*dA*d[5mC]*d[5mC]*d[5mC]*dT*dG*dG*dT*dG*eT*eA) [compound 435495]	27
435752 (antisense eT*eG*d[5mC]*dA*dG*d[5mC]*dT*dT*dG*d[5mC]*d[5mC]*dA*eG*eG) [compound 435752]	12
435636 (antisense eG*eA*dG*dA*d[5mC]*d[5mC]*dA*dT*dG*dA*dT*dG*eA*eA) [compound 435636]	13
435645 (antisense eG*eG*dA*dG*d[5mC]*dT*dG*dG*dT*d[5mC]*d[5mC]*dT*eT*eG) [compound 435645]	44
435664 (antisense eT*eT*dT*dT*dT*d[5mC]*d[5mC]*dA*d[5mC]*dA*dT*dG*eG*eA) [compound 435664]	4

Substance	% Inhibition [%]
435665 (antisense eA*eG*dG*dT*dA*dT*dT*dT*dT*dT*d[5mC]*d[5mC]*eA*e[5mC]) [compound 435665]	0
435791 (antisense eA*eT*dG*dA*dG*dA*dA*dA*dT*dG*d[5mC]*dT*eT*eT) [compound 435791]	0
435806 (antisense eT*eG*dA*d[5mC]*d[5mC]*d[5mC]*d[5mC]*dA*d[5mC]*dA*dG*dG*eG*eA) [compound 435806]	7
435821 (antisense eA*eG*dT*d[5mC]*dA*dG*dT*dA*d[5mC]*dA*dG*dA*e[5mC]*eA) [compound 435821]	0
435820 (antisense e[5mC]*eA*dT*d[5mC]*d[5mC]*dT*dA*dG*dT*d[5mC]*dA*d[5mC]*eT*eG) [compound 435820]	19
435725 (antisense eG*e[5mC]*dA*dG*d[5mC]*d[5mC]*dT*dG*dA*dG*dG*d[5mC]*e[5mC]*eA) [compound 435725]	79
435743 (antisense eG*e[5mC]*d[5mC]*dT*d[5mC]*dA*dA*dA*d[5mC]*dA*dT*d[5mC]*eT*eA) [compound 435743]	40
435753 (antisense eA*eA*dG*dA*dG*dT*dG*d[5mC]*dA*dG*d[5mC]*dT*eT*eG) [compound 435753]	9
435642 (antisense eA*e[5mC]*dA*d[5mC]*dT*dG*dG*dT*d[5mC]*d[5mC]*d[5mC]*d[5mC]*eA*eT) [compound 435642]	60
435795 (antisense eA*e[5mC]*dA*d[5mC]*d[5mC]*d[5mC]*dG*dA*dG*dG*dT*dT*e[5mC]*eA) [compound 435795]	66
435479 (antisense e[5mC]*eA*d[5mC]*dT*d[5mC]*d[5mC]*d[5mC]*d[5mC]*dT*dT*dT*dG*eG*eG) [compound 435479]	9
435715 (antisense e[5mC]*eA*dG*d[5mC]*d[5mC]*dA*d[5mC]*dT*d[5mC]*dG*dA*dT*eG*eT) [compound 435715]	35
435635 (antisense e[5mC]*eA*dT*dG*dA*dT*dG*dA*dA*dA*dT*d[5mC]*eT*e[5mC]) [compound 435635]	0
435638 (antisense eA*eG*d[5mC]*d[5mC]*d[5mC]*dT*dG*dA*dA*dG*d[5mC]*d[5mC]*e[5mC]*eA) [compound 435638]	55
435799 (antisense e[5mC]*eT*dG*dG*dT*d[5mC]*d[5mC]*d[5mC]*d[5mC]*dA*dT*d[5mC]*eT*eG) [compound 435799]	33
435798 (antisense eA*eG*d[5mC]*d[5mC]*dA*dG*dA*d[5mC]*dT*dT*dT*d[5mC]*e[5mC]*eT) [compound 435798]	54
435775 (antisense eT*e[5mC]*dT*dG*dG*dA*dA*dG*dG*dA*dA*d[5mC]*eA*eG) [compound 435775]	25
435825 (antisense e[5mC]*eT*dG*dG*dT*dT*dT*dT*dG*dG*dA*dG*eG*eA) [compound 435825]	0
435842 (antisense eA*eT*dT*dT*d[5mC]*d[5mC]*d[5mC]*dA*dT*dT*dG*dG*e[5mC]*eA) [compound 435842]	0
435673 (antisense eA*eG*dA*d[5mC]*d[5mC]*dA*d[5mC]*d[5mC]*d[5mC]*dA*dG*dA*eT*eG) [compound 435673]	34
435500 (antisense eA*e[5mC]*dT*dG*dG*dG*dA*dG*dA*d[5mC]*d[5mC]*d[5mC]*eT*eG) [compound 435500]	49
435492 (antisense eA*e[5mC]*d[5mC]*d[5mC]*dT*dG*dG*dT*dG*dT*dA*d[5mC]*eA*e[5mC]) [compound 435492]	45
435811 (antisense eG*eT*dG*dG*dT*d[5mC]*dA*dA*dG*dG*dA*dT*eG*eA) [compound 435811]	27
